Measured values reported in article PMC6178348, “Intranasal delivery of a Fas-blocking peptide attenuates Fas-mediated apoptosis in brain ischemia” (Scientific Reports, 2018).
Peptide text beside a SMILES is read from it.

Assays:
normal rat brain tissue = test: H&E and TUNEL staining of brain sections of normal non-ischemic rats after IN inoculation; format: in vivo; settings: H&E and TUNEL stained sections, N = 6 per group
Protocol: Brain pathology was analyzed by incubating 2 mm thick brain slices in 2% 2,3,5-triphenyltetrazolium chloride (TTC staining, Sigma) and measuring the infarct volume after fixation using Image J software as previously described. Paraffin-embedded brain sections were also subjected to H&E staining and immunohistochemistry after with an antibody to rat Fas (ab82419, Abcam). Apoptosis in de-paraffinized, rehydrated brain sections was analyzed by TUNEL staining using the In Situ Cell Death Detection Kit (Roche, Germany) in accordance with the manufacturer’s instructions.
(A) Regional cerebral blood flow (rCBF) in rat’s subject to MCAO. The cerebral blood flow was measured during ligation of CCA, occlusion of MCA and after reperfusion (N=6 per group) and a 9 fold reduction was considered as a confirmation of ischemic stroke injury. (B) Bio-distribution of IN inoculated ctr-FBP-A488 or FBP-A488 at the indicated time points in normal non-ischemic rats that constitute a control group (N=3 per group). Mock treated animals were inoculated with PBS. (C) Representative hematoxylin and eosin (H&E) (upper panel) and TUNEL (lower panel) stained paraffin embedded sections from normal rat inoculated with PBS (Mock), ctr-FBP or FBP […]
change in tissue morphology and toxicity. Scale bare represents 100µm. ctr-FBP-A488- Alexa488 labeled control peptide, FBP-A488- Alexa488 labeled Fas-blocking peptide.

[1] = Brain biodistribution of intranasally inoculated A488-labeled peptide in normal and MCAO rats; format: in vivo, Sprague–Dawley rats; settings: intranasal (POD), MCAO rats; fluorescence imaging
From the text: Figure 3 IN delivered FBP localizes to Fas-expressing brain regions in the MCAO rat model of focal ischemia. (A) Immunohistochemistry for Fas expression in ischemic rat brain after MCAO. Representative images of deparaffinized coronal brain sections from normal or ischemic rats stained with anti-Fas antibody at the designated times post-MCAO are shown. Representative images (upper panel) and cumulative data (lower panel) depicting fluorescence intensities measured in arbitrary pixel values relative to that at the 12 h ‘normal’ rats. Scale bar = 50 µm. The data represent mean ± SD (N = 6 per group). *P < 0.05 at individual time-points, Mann-Whitney U test, ^###P < 0.001; Cumulative data, Two-way ANOVA. […] Representative images (upper panel) and cumulative data (lower panel) depicting fluorescence intensities measured in arbitrary pixel values relative to and normalized based on fluorescence intensities in normal group. […]
For bio-distribution studies, A488-conjugated FBP was intranasally (IN) administered at 500 μg (1.4 mg/kg) in a final volume of 50 μL (25 μL in each nare) using the POD at 12 h post-MCAO and fluorescence analyzed at designated time points in isolated organs using Image Station 4000 mm (Carestream Rochester, NY) or by flow cytometry of single cell suspensions on a FACS Calibur™ (BD Bioscience, San Jose, CA) and analyzed using the Flowjo software. […]

Row | Compound | Change in brain tissue morphology and toxicity in normal rats (normal rat brain tissue) | Clearance of peptide from brain after IN delivery [1]
1 | N[C@@H](Cc1ccc(O)cc1)C(=O)N[C@@H](CS)C(=O)N[C@@H](CC(=O)O)C(=O)N[C@@H](CCC(=O)O)C(=O)N[C@@H](Cc1c[nH]cn1)C(=O)N[C@@H](Cc1ccccc1)C(=O)N[C@@H](CS)C(=O)N[C@@H](Cc1ccc(O)cc1)C(=O)O [FBP] (H-YCDEHFCY-OH) | did not shows any change in tissue morphology and toxicity | 
2 | CC(C)[C@H](NC(=O)[C@@H](NC(=O)[C@H](CO)NC(=O)[C@H](CC(N)=O)NC(=O)[C@H](CS)NC(=O)[C@@H](N)Cc1ccc(O)cc1)[C@@H](C)O)C(=O)N[C@@H](CS)C(=O)N[C@@H](Cc1ccc(O)cc1)C(=O)O [ctr-FBP] (H-YCNSTVCY-OH) | did not shows any change in tissue morphology and toxicity | cleared within a few hours of treatment
